Measured values: the supplement of paper PMC12669032

Assays:
Test in all cases: growth AUC relative to DMSO control (fraction); higher = more growth (less inhibition)
Details in all cases: 24 h
Bacteroides uniformis = tested on: Bacteroides uniformis
Description: (§1)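 Validation screen: 11 independently purchased pesticides tested on 8 gut bacterial strains at 2.5–320 µM in mGAM, anaerobic, 37 °C, 24 h. Growth AUC normalised to DMSO controls, mean of 3 independent experiments.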

Streptococcus salivarius = tested on: Streptococcus salivarius
Description: as §1

[1] = tested on: Parabacteroides distasonis
Description: as §1

Lactobacillus gasseri = tested on: Lactobacillus gasseri
Description: as §1

Eubacterium rectale = tested on: Eubacterium rectale
Description: as §1

Roseburia intestinalis = tested on: Roseburia intestinalis
Description: as §1

Escherichia coli IAI1 = tested on: Escherichia coli IAI1
Description: as §1

Clostridium difficile = tested on: Clostridium difficile
Description: as §1

O=C(Oc1ccccc1)n1c(C(F)(F)F)nc2cc(Cl)c(Cl)cc21 [FENAZAFLOR]
growth AUC
Details | Bacteroides uniformis | Clostridium difficile | Escherichia coli IAI1 | Eubacterium rectale | Lactobacillus gasseri | Roseburia intestinalis | Streptococcus salivarius | [1]
2.5 µM | 0.972 | 0.824 | 0.97 | 0.987 | 1.06 | 1.05 | 1.07 | 0.939
5 µM | 0.914 | 0.854 | 0.837 | 0.875 | 0.99 | 0.968 | 0.876 | 0.6
10 µM | 0.686 | 0.595 | 0.679 | 0.642 | 0.837 | 0.887 | 0.658 | 0.314
20 µM | 0.492 | 0.705 | 0.617 | 0.407 | 0.448 | 0.582 | 0.513 | 0.174
40 µM | 0.171 | 0.00756 | 0.383 | 0.255 | 0.168 | 0.22 | 0.0266 | 0.0387
80 µM | 0.00285 | 0.0273 | 0.00144 | 0.106 | 0.0839 | 0.0682 | 0.0113 | 0.0173
160 µM | 0.00332 | 0.0114 | 0.00384 | 0.0493 | 0.0514 | 0.0676 | 0.00976 | 0.0144
320 µM | 0.0184 | 0.0253 | 0.0222 | 0.106 | 0.0326 | 0.0375 | 0.0373 | 0.0614

C=CCOC(Cn1ccnc1)c1ccc(Cl)cc1Cl.O=S(=O)(O)O (stereo unspecified) [IMAZALIL SULFATE]
growth AUC
Details | Bacteroides uniformis | Clostridium difficile | Escherichia coli IAI1 | Eubacterium rectale | Lactobacillus gasseri | Roseburia intestinalis | Streptococcus salivarius | [1]
2.5 µM | 1.04 | 1.02 | 0.998 | 0.622 | 1.07 | 0.943 | 1.05 | 1.02
5 µM | 1 | 0.962 | 0.975 | 0.322 | 0.958 | 0.906 | 1.01 | 0.948
10 µM | 1.01 | 0.944 | 0.956 | 0.0607 | 0.976 | 0.861 | 0.963 | 0.856
20 µM | 0.971 | 1.01 | 0.96 | 0.0382 | 0.92 | 0.459 | 0.978 | 0.922
40 µM | 0.976 | 0.915 | 0.942 | 0.0278 | 0.946 | 0.0225 | 0.961 | 0.732
80 µM | 0.928 | 0.797 | 0.961 | 0.014 | 0.881 | 0.0276 | 0.944 | 0.587
160 µM | 0.836 | 0.515 | 0.879 | 0.0363 | 0.788 | 0.0196 | 0.999 | 0.145
320 µM | 0.413 | 0.219 | 0.776 | 0.0159 | 0.414 | 0.0118 | 0.705 | 0.0186

COC(=O)N(OC)c1ccccc1COc1ccn(-c2ccc(Cl)cc2)n1 [PYRACLOSTROBIN]
growth AUC
Details | Bacteroides uniformis | Clostridium difficile | Escherichia coli IAI1 | Eubacterium rectale | Lactobacillus gasseri | Roseburia intestinalis | Streptococcus salivarius | [1]
2.5 µM | 1.01 | 1.03 | 1.02 | 1.17 | 1.06 | 0.955 | 1.11 | 0.922
5 µM | 0.994 | 1.01 | 1.02 | 1.12 | 1.01 | 0.923 | 1.09 | 0.798
10 µM | 0.955 | 1 | 1.01 | 1.18 | 0.997 | 0.957 | 1.07 | 0.705
20 µM | 0.988 | 1.01 | 1.01 | 1.16 | 0.955 | 0.859 | 1.12 | 0.626
40 µM | 0.926 | 1.03 | 1.01 | 1.18 | 0.989 | 0.975 | 1.08 | 0.401
80 µM | 0.914 | 1.04 | 0.999 | 1.13 | 0.914 | 0.919 | 1.02 | 0.26
